For the test, the target named is Glycogen synthase kinase-3 alpha (Homo sapiens) (UniProt P49840). Put plainly: concentration-response blocking of human GSK3A – biochemical, luminescence, cell-free homogeneous, retest, dose response (AID 463203). To be noted: GSK-3 alpha enzyme, ADP-Glo luminescence, 60 min. (In general: ADP-Glo turns the ADP formed in a reaction into a luminescent signal.)

Activity calls are given as the source filed them.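 Rule for the calls: active = more than half of replicate measurements showing over 20% loss of kinase signal relative to plate controls; inconclusive = some but at most half of replicates over 20% loss; inactive = no replicate over 20% signal loss.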

We go through 94 molecules from PubChem BioAssay AID463203 (Broad Institute, 2010).

Sequence of Glycogen synthase kinase-3 alpha (Homo sapiens) (P49840 whole entry, looked up): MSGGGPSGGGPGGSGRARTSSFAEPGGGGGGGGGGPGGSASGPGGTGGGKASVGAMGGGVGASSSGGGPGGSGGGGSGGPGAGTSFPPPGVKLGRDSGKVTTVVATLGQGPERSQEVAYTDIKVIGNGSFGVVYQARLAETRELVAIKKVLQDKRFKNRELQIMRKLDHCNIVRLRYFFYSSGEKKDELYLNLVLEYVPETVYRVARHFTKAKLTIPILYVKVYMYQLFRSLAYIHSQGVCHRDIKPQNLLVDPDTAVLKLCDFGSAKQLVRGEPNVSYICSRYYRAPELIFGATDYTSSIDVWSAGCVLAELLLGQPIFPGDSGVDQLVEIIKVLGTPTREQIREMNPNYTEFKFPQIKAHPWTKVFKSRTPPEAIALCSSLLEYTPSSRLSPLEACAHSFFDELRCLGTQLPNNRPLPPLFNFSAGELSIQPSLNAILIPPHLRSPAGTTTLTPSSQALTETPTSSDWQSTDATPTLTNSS

In the case of `COc1ccc(C(=O)OCC(=O)Nc2c(C)n(C)n(-c3ccccc3)c2=O)cc1`, the AC50 (commonly the midpoint of the concentration-response curve, whichever way the signal moves) is > 30 µM (inactive).

For `CN1C(=O)N(C)C2(c3ccccc3)Nn3c(s/c(=C/c4ccccc4)c3=O)=NC12c1ccccc1` (centres undefined), the AC50 was > 30 µM (inactive).

With `O=C(c1ccco1)N(Cc1ccc([N+](=O)[O-])cc1)c1ccc(Br)cc1`, the AC50 was > 30 µM (inactive).

For the molecule `Cc1ccccc1C(=O)O/N=C(\N)c1cccc([N+](=O)[O-])c1`, the AC50 was > 30 µM (inactive).

As for `Cc1ccc(C(=O)Nc2cccc(C(=O)NC3CCCCC3)c2)cc1`, the AC50 was > 30 µM (inactive).

As to `CC(C)COc1ncnc2c1sc1nc3c(cc12)COC(C)(C)C3`, the AC50 is > 30 µM (inactive).

On to `CCSc1nc2c(c(=O)[nH]1)C(c1ccccn1)C1=C(CC(C)(C)CC1=O)N2` (centres undefined), for which the AC50 was > 30 µM (inactive).

Consider `CCOc1cc(-c2nc3c(C)cccn3c2NCC2CCCO2)ccc1O` (centres undefined), for which the AC50 was > 30 µM (inactive).

`COc1ccc(-c2cc(C(F)(F)F)nc(SCC(=O)NCc3cccs3)n2)cc1`: the AC50 is > 30 µM (inactive).

In the case of `CCOc1ccc(/C=C/C2=Cc3c(sc(NC(=O)CSc4n[nH]c(N)n4)c3C#N)C(C)(C)C2)cc1`, the AC50 is > 30 µM (inactive).

`COc1ccc(-c2cc(C(F)(F)F)nc(SCCC(=O)NCc3ccccc3)n2)cc1`: the AC50 was > 30 µM (inactive).

Turning to `Cc1ccc(-c2c3c(=O)n(C)c(=O)n(C)c3cn2Cc2ccccn2)cc1`, the AC50 is > 30 µM (inactive).

With `Cc1nc2ccc(-c3ccccc3)cc2o1`, the AC50 was > 30 µM (inactive).

For `Cc1cc(C)c[n+](C2=C([O-])c3ccccc3C(=O)/C2=N\S(=O)(=O)c2cccs2)c1`, the AC50 was > 30 µM (inactive).

On to `Nc1nc2n(n1)C(c1ccc(Cl)cc1)CC(c1ccc(F)cc1)N2` (centres undefined), for which the AC50 was > 30 µM (inactive).

With `COc1ccc(/C=C2\Oc3cc(OCC(=O)N4CCC[C@H]4C(=O)O)ccc3C2=O)c(OC)c1OC`, the AC50 is > 30 µM (inactive).

Consider `CCOc1cc(/C=C2\N=C3CCCCCN3C2=O)ccc1O`, for which the AC50 was 19.3 µM.

As to `c1cncc(CSc2nnc3ccc(-c4cccs4)nn23)c1`, the AC50 is 14.4 µM.

Take `Cc1ccc(S(=O)(=O)Nc2cc(Cl)c(O)c3ncccc23)cc1`: the AC50 is > 30 µM (inactive).

For `CC(C)N=C(NC#N)SCc1ccc(F)cc1`, the AC50 was > 30 µM (inactive).

In the case of `CCc1ccc(/C=N/NC(=O)c2nnn(-c3nonc3N)c2C(C)C)cc1`, the AC50 was > 30 µM (inactive).

As for `COC(=O)c1ccc(CSc2ccc3nnc(-c4ccc(OC)cc4)n3n2)o1`, the AC50 was 17.1 µM.

`Cc1ccnc(SCC(=O)Nc2sc3c(c2C#N)CCCC3)n1`: the AC50 was > 30 µM (inactive).

In the case of `COC(=O)c1c(NC(=O)Cc2cccs2)sc2c1CCCC2`, the AC50 is > 30 µM (inactive).

Regarding `O=C(c1ccc(Cn2cnnn2)cc1)N1CCCC(Nc2ccc(F)c(F)c2)C1` (centres undefined), the AC50 is 16.1 µM.

`Nc1nc(-c2ccccc2)nc(-c2ccccc2O)n1`: the AC50 is 21.4 µM.

For the molecule `O/N=C1/CC/C(=N\O)c2nn(-c3ccccc3)nc21`, the AC50 was 25.3 µM.

As to `c1ccc2[nH]c(-c3ccncc3)nc2c1`, the AC50 was > 30 µM (inactive).

Consider `O=C(CSc1n[nH]c(=O)n1-c1ccc2c(c1)OCCO2)Nc1ccccc1`, for which the AC50 is > 30 µM (inactive).

For the molecule `Cc1sc2ncnc(SCC(=O)NCC3CCCO3)c2c1C` (centres undefined), the AC50 is > 30 µM (inactive).

In the case of `O=C1CC(/C=C/c2ccncc2)=Nc2ccccc2N1`, the AC50 was 13.1 µM.

`CN1/C(=C/C(=S)NC(=O)C2(C)CC2(Cl)Cl)C(C)(C)c2ccccc21` (centres undefined): the AC50 is > 30 µM (inactive).

Regarding `COC(=O)c1cn(-c2ccccc2)nc1-c1cccnc1`, the AC50 is > 30 µM (inactive).

For `CC(=O)Nc1ccccc1C`, the AC50 is > 30 µM (inactive).

For the molecule `O=C(COC(=O)c1cc([N+](=O)[O-])ccc1N1CCOCC1)Nc1ccc(Cl)cn1`, the AC50 is 4.79 µM.

For `Nc1n[nH]c2cc(=O)n(-c3ccc(Cl)cc3)nc12`, the AC50 is 18.9 µM.

As for `CC1(C)CC(=O)C(C=NCCc2ccc(O)cc2)=C(O)C1`, the AC50 is > 30 µM (inactive).

On to `Cc1sc2ncnc(NCc3cccs3)c2c1C`, for which the AC50 was > 30 µM (inactive).

As for `CCCNC(=O)NC(C)C12CC3CC(CC(C3)C1)C2` (centres undefined), the AC50 was > 30 µM (inactive).

Regarding `Cn1c(SCC(=O)N/N=C/C=C/c2ccco2)nc2ccccc21`, the AC50 was > 30 µM (inactive).

On to `Cc1nc2sc3c(c2c(=O)o1)CC(C)(C)OC3`, for which the AC50 is > 30 µM (inactive).

In the case of `Cc1ccccc1/C=N/Nc1nc2ccccc2[nH]1`, the AC50 was > 30 µM (inactive).

On to `COc1ccc(S(=O)(=O)Nc2ccc(S(=O)(=O)Nc3nc(C)cc(C)n3)cc2)cc1OC`, for which the AC50 was > 30 µM (inactive).

For `Cc1ccc2c(c1)N(CCC(=O)NC(C)C)C(=O)CO2`, the AC50 was > 30 µM (inactive).

Consider `CCOc1ccc(Nc2nc(NCc3ccco3)nc(N)c2[N+](=O)[O-])cc1`, for which the AC50 is > 30 µM (inactive).

For `NS(=O)(=O)c1cccc(NC(=O)CSc2nnc(-c3ccccc3)o2)c1`, the AC50 is > 30 µM (inactive).

Take `O=C1/C(=C/c2ccc3c(c2)OCO3)Oc2cc(OCC(=O)N3CC(O)C[C@H]3C(=O)O)ccc21` (some centres undefined): the AC50 is 4.07 µM.

As to `O=c1[nH]c(=O)n(C2CCCCC2)c(O)c1C=NCCCn1ccnc1`, the AC50 was 4.06 µM.

Regarding `O=C(O)CN1C(=O)C2C3CC(C2C1=O)C1C(c2ccccc2)c2sc(=O)[nH]c2SC31` (centres undefined), the AC50 is > 30 µM (inactive).

As to `Cc1ccc(CNc2ccc([N+](=O)[O-])cc2C(N)=O)cc1`, the AC50 was > 30 µM (inactive).

`Cc1cccc(/C(N)=N/OC(=O)c2ccc3c(c2)OCO3)c1`: the AC50 was 24.7 µM.

For `CC1(C)Cc2cccc(C(=O)NCc3ccco3)c2O1`, the AC50 is > 30 µM (inactive).

With `COc1ccccc1C(=O)O/N=C(\N)c1ccccn1`, the AC50 was > 30 µM (inactive).

Turning to `NC(=O)c1cc([N+](=O)[O-])ccc1NCc1ccc(N)cc1`, the concentration at half-maximal activity (AC50) was 8.36 µM.

As to `Nc1c(C(=O)Nc2ccc3c(c2)OCCO3)nnn1Cc1ccccc1Cl`, the AC50 is > 30 µM (inactive).

`CCOC(=O)c1c(NC(=O)CSc2nnc(CNc3ccc(C)cc3C)o2)sc(C)c1C`: the AC50 is > 30 µM (inactive).

For the molecule `O=C1c2c(O)ccc(O)c2C(=O)c2c(NCCNCCO)ccc(NCCNCCO)c21`, the AC50 was 28.3 µM.

In the case of `O=C(NCCN1CCN(Cc2ccccc2)CC1)Nc1cc(Cl)cc(Cl)c1`, the AC50 was > 30 µM (inactive).

As for `Fc1ccc(Nc2nc(-c3ccncc3)nc3ccccc23)cc1F`, the AC50 was > 30 µM (inactive).

Consider `O=C(CNS(=O)(=O)c1ccccc1)N/N=C/c1ccc(O)cc1`, for which the AC50 is 30.2 µM.

For the molecule `CN(C)C(=O)Oc1ccc(OC(=O)N(C)C)cc1`, the AC50 is > 30 µM (inactive).

Consider `Clc1ccc(Nc2ncn[nH]2)cc1`, for which the AC50 was > 30 µM (inactive).

As to `COc1ccc(OCC(=O)NCCCn2ccnc2)cc1`, the AC50 was > 30 µM (inactive).

Regarding `Nc1nc(SCCOc2ccccc2)n[nH]1`, the AC50 was > 30 µM (inactive).

For `CC(=O)OCC1OC(n2ccc(=O)[nH]c2=O)C(O)C1O` (centres undefined), the AC50 is > 30 µM (inactive).

Take `NC(=O)N/N=C/c1c(O)ccc2oc3c(c12)CCCC3`: the AC50 was 0.845 µM.

As for `Cc1sc2ncnc(N3CCC(C(=O)Nc4ccc(C#N)cc4)CC3)c2c1C`, the AC50 is > 30 µM (inactive).

For `CCCc1cc(C(N)=O)c(NC(C)=O)s1`, the AC50 was 30.8 µM.

`CCSc1nnc([C@@H](N)Cc2c[nH]c3ccccc23)o1`: the AC50 is > 30 µM (inactive).

For the molecule `N#Cc1sc2nc(-c3cccs3)cc(-c3ccccc3)c2c1N`, the AC50 was > 30 µM (inactive).

Consider `CCNc1nc(NCC)nc(C(=O)OCCO)n1`, for which the AC50 is > 30 µM (inactive).

For the molecule `Nc1ccc2nc(C3CCCCC3)[nH]c2c1`, the AC50 was > 30 µM (inactive).

As to `N#CCC(=O)Nc1sc2c(c1C(N)=O)CCCC2`, the AC50 is 20.2 µM.

For the molecule `COc1ccc(C(=O)NCC(=O)N/N=C(C)\C=C\c2ccccc2)cc1OC`, the AC50 was > 30 µM (inactive).

In the case of `CCC(CC)c1nnc(NC(=O)CCN2C(=O)c3ccccc3C2=O)s1`, the AC50 was > 30 µM (inactive).

Consider `Cc1cc(C(C#N)c2cccc(Cl)c2)n2ncnc2n1` (centres undefined), for which the half-maximal activity concentration (AC50) is 5.78 µM.

For the molecule `O=C(c1ccccc1)c1cnc(Nc2ccccc2Cl)s1`, the AC50 was > 30 µM (inactive).

Regarding `NC1=NC(=O)/C(=C/c2ccc(-c3ccc(S(N)(=O)=O)cc3)o2)S1`, the AC50 is 0.397 µM.

In the case of `O=C(COC(=O)C1CCC1)c1c[nH]c2ccccc12`, the AC50 is > 30 µM (inactive).

With `NC(=O)c1ccc(N=C2C(=O)Nc3ccc([N+](=O)[O-])cc32)cc1`, the AC50 was > 30 µM (inactive).

As for `CC(C)(C)OC(=O)N1CCN(C(=O)c2[nH]cnc2C(=O)Nc2ccon2)CC1`, the AC50 was > 30 µM (inactive).

For the molecule `CCCCSc1nc(C)[nH]c1[N+](=O)[O-]`, the AC50 is > 30 µM (inactive).

On to `CSc1nc(NCC(C)C)nc(N2CCOCC2)n1`, for which the AC50 is > 30 µM (inactive).

Turning to `CC(=O)Nc1ccc(-c2csc(NCc3ccccc3)n2)cc1`, the AC50 was > 30 µM (inactive).

`Cn1c(N=Nc2ccccc2)nc2ccccc21`: the AC50 was 21.1 µM.

With `Cc1[nH]c2ccccc2c1N=Nc1cccc(C(=O)O)c1`, the AC50 is > 30 µM (inactive).

For the molecule `NC(=O)c1ccsc1NC(=O)C1CC1`, the AC50 is > 30 µM (inactive).

`COc1cccc2c1C(=O)O/C2=C/c1ccc2c(c1)OCO2`: the AC50 was > 30 µM (inactive).

With `CN(C)Cc1c(C(=O)N/N=C/C=C/c2ccccc2)nnn1-c1nonc1N`, the AC50 was 30 µM.

With `Clc1ccc(Nc2nc(NCCN3CCOCC3)nc(N3CCOCC3)n2)cc1`, the AC50 is > 30 µM (inactive).

As for `COc1ccc(-c2cn3cccnc3n2)cc1NC(=O)C1CC1`, the AC50 is > 30 µM (inactive).

With `CCOC(=O)c1c(-c2cccc([N+](=O)[O-])c2)csc1N`, the AC50 is 6.81 µM.

For `CCOC(=O)c1ccc(NC(=O)CSCc2ccco2)cc1`, the AC50 is > 30 µM (inactive).

In the case of `Cc1cnc(NC(=O)C2CC(=O)N(c3cccc(Cl)c3)C2)s1` (centres undefined), the AC50 is 12.6 µM.
